Test results reported in patent US4402970A, “1,7-Dihydro-pyrrolo[3,4-e][1,4]diazepin-2(1H)-one derivatives” (Gruppo Lepetit S.p.A., priority 1981, dated 1983).
Where two headings read alike, the source gives them in different places.

Tests used:
[1] = test system: rats; experiment: potentiation of hexobarbital-induced sleeping time in rats (inducing activity); format: in vivo; details: for potentiation of hexobarbital-induced "sleeping time": same conditions, higher doses than 1 mg/kg p.o.
Experimental: (§1) This is considered as an indication of the absence of inducing activity. These favorable pharmacological properties of the compounds of the present invention are accompanied by a low toxicity, lower than that of the prior-art compounds. As an example, while the acute oral toxicity of the prior-art 3,7-dihydro-6,7-dimethyl-5-phenylpyrrolo[3,4-e][1,4]diazepin-2(1H)-one in mice is about 500 mg/kg, that of the compound of example 5 of the present invention is comprised between 600 and 700 mg/kg and that of the compound of example 11 is higher than 20,000 mg/kg.

[2] = acute oral toxicity in mice; details: mouse, in vivo
Experimental: as §1

[3] = test system: benzodiazepine receptors; experiment: benzodiazepine receptors test in vivo (displacement of 3H-Diazepam from rat brain receptors)
Experimental: (§2) The anti-anxiety activity of the compounds of the present invention was first shown by submitting the compounds to the "benzodiazepine receptors" test both in vitro and in vivo.
(§3) The in vitro experiments were carried out by following the method described by H. Moler and T. Okada in Life Sciences Vol. 20, 2101-2110 (1977) while those in vivo were carried out according to the procedures illustrated by S. Lippa et al. in Pharmacol. Biochem. & Behaviour, Vol. 9, pp. 853-856 (1978).

[4] = target: benzodiazepine receptors; experiment: benzodiazepine receptors test in vitro (displacement of 3H-Diazepam from rat brain receptors); format: binding
Experimental: as §2, §3

[5] = test system: mice (pentylenetetrazole-induced death); experiment: antipentylenetetrazole bioassay in mice (anticonvulsant activity); format: in vivo; details: oral; for ED50: Mus musculus, 2 h
Experimental: To evaluate the anticonvulsant activity the compounds of the present invention have been submitted to the antipentylenetetrazole bioassay in mice. The experiments have been carried out by following essentially the methodology described by Berger in J. Pharm. Exptl. Ther. 104, 468, (1952). More particularly, a fatal dose of pentylenetetrazole (140 mg/kg s.c.) was administered to groups of ten mice each, treated, 30 minutes before the administration of the convulsant agent, with a selected dose of the potential anticonvulsant compound. […] Since the animals of the control group died within 30 minutes, the effectiveness of the compounds tested, at each dose tested, was expressed as the number of animals of the group which were still alive two hours after the administration of pentylenetetrazole, out of the total number of animals of the group (10).
By testing each compound at different doses, the corresponding ED50, i.e. the dose at which 50% of the treated animals are protected, was calculated.
The same test was carried out also with 3,7-dihydro-6,7-dimethyl-5-phenyl-pyrrol[3,4-e][1,4]diazepin-2 (1H)-one (IX) [drawing 13]

[6] = test system: monkeys; experiment: taming effect test on naturally vicious and aggressive monkeys; format: in vivo; details: oral dose of 1 mg/kg
Description: Another behavioural test which confirmed the anti-anxiety properties of the compounds of the present invention was the so-called "taming effect" test carried out on naturally vicious and aggressive monkeys.
The "taming effect" on monkeys is one of the most meaningful and reliable parameters with which the anti-anxiety properties of a compound can be investigated. […] A true "taming effect", as an indication of the anti-anxiety properties of a compound not ascribable to CNS-depression, is reached when the animals become docile and friendly so as to accept food from the observer's hand.

[7] = 30 minutes before pentylenetetrazole 140 mg/kg s.c., survival at two hours, read-out: ED50 (dose at which 50% of the treated animals are protected)

Row | SMILES | potentiation of hexobarbital-induced "sleeping time" [1] | LD50 [2] [mg/kg] | "in vivo" % inhibition at 1 mg/kg/os [3] [%] | Ki [4] [nM] | dose from which hexobarbital-induced "sleeping time" is potentiated ([1]; p.o.) [mg/kg p.o.] | ED50 ([5]; prior-art compound, calculated in the same way, read-out: ED50) [mg/kg] | anticonvulsant activity relative to the compounds of the present invention ([5]; comparison of ED50) | treated animals displaying a true "taming effect" [6] | ED50 [5, 7] [mg/kg]
1 | Cc1c2c(cn1C)NC(=O)C(O)N=C2c1ccccc1 (stereo not shown) [Example 5, 1,7-Dihydro-3-hydroxy-6,7-dimethyl-5-phenyl-pyrrolo[3,4-e][1,4]diazepin-2(1H)-one] | did not show this potentiating effect even at higher doses | 600 to 700 | -45 | 45.9 | – | – | – | – | –
2 | Cc1c2c(cn1C)NC(=O)CN=C2c1ccccc1 [IX, 3,7-dihydro-6,7-dimethyl-5-phenyl-pyrrol[3,4-e][1,4]diazepin-2 (1H)-one, reference compound] | – | ~500 | -33 | 97 | 1 | 15 | at least twice less active than the compounds of the present invention | – | –
3 | Cc1c2c(cn1C)N(C)C(=O)C(O)N=C2c1ccccc1Cl (stereo not shown) [Example 11, 5-(2-Chlorophenyl)-1,7-dihydro-3-hydroxy-1,6,7-trimethylpyrrolo[3,4-e][1,4]diazepin-2(1H)-one] | did not show this potentiating effect even at higher doses | > 20000 | -54 | 2.82 | – | – | – | at least 50% | 5
4 | CC(=O)OC1N=C(c2ccccc2Cl)c2c(cn(C)c2C)NC1=O (stereo not shown) [Example 9, 5-(2-chlorophenyl)-3-acetoxy-1,7-dihydro-6,7-dimethylpyrrolo[3,4-e][1,4]diazepin-2-(1H)-one] | – | – | – | – | – | – | – | – | 7.5
5 | Cc1c2c(cn1C)NC(=O)C(O)N=C2c1ccccc1Cl (stereo not shown) [Example 10] | – | – | – | – | – | – | – | at least 50% | 7.5
